Test results published in US20140377340A1, “HLA-DR BINDING PEPTIDES AND THEIR USES” (priority 2007, published 2014).

Columns and labels:
purified HLA DRB1*0701 = biological target: T1, purified HLA DRB1*0701 (Homo sapiens, UniProt P01903+P01911, A100R/A102G/A103Q/D57E/D86V/E43K/F76Y/K127E/L162R/M171V/P40G/Q125H/Q99D/R33Q/R42Y/R54Q/S133A/S66F/T210M/V115G/Y107V/Y59L/Y89S); assay: HLA-DR radioligand binding inhibition assay, DRB1*0701; settings: IC50 nM purified HLA DRB1 *0701, purified HLA DRB1*0701
T1 construct: purified from EBV transformed homozygous cell lines or single MHC allele transfected 721.221, C1R, or fibroblast lines; made in house
Procedure, shortened: (§1)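 Competition binding: 1-10 nM radiolabeled peptide + 1 μM–1 nM HLA-DR, protease inhibitor cocktail, 2 d, RT or 37° C., pH 4–7. LB3.1 capture 3 h in 0.05% NP40/PBS; scintillation counting.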

purified HLA DRB1*0901 = biological target: T2, purified HLA DRB1*0901 (Homo sapiens, UniProt P01903+P01911, A100R/A103E/D57H/D86V/F55Y/F60I/F76Y/I96F/K127E/L162R/M171V/P40D/Q125H/Q99R/R33Q/R42F/S133A/S66N/T210M/V115G/W38K/Y107V/Y59G/Y89S); assay: HLA-DR radioligand binding inhibition assay, DRB1*0901; settings: IC50 nM purified HLA DRB1 *0901, purified HLA DRB1*0901
T2 construct: purified from EBV transformed homozygous cell lines or single MHC allele transfected 721.221, C1R, or fibroblast lines; made in house
Protocol: (§2) Instead, wells of an opaque white 96-well Optiplate (Packard) are coated with 3 μg (100 μl@ 30 μg/ml) of HLA-specific antibody (Ab) that “capture” complexes of radiolabeled MHC and unlabeled peptide transferred from the molecular binding assay plate in 100 μl of 0.05% NP40/PBS. After a 3-hour incubation period, the supernatant is decanted and scintillation fluid (Microscint 20) added. Captured complexes are then measured on a microplate scintillation and luminescence counter (TopCount NXTTM; Packard).
(§3) HLA-DR purification. Fifteen distinct HLA-DR molecules were used in quantitative assays to measure the binding of peptides to solubilized HLA-DR molecules. […] Briefly, columns of inactivated Sepharose CL4B and Protein A Sepharose were used as pre-columns. HLA-DR molecules were captured by passage of lysates over LB3.1 monoclonal antibody (anti-HLA-DRA) columns. Antibody columns were washed with 10 mM Tris-HCL, pH8.0 with 1% (v/v) NP-40, followed by PBS containing 0.4% (w/v) n-octylglucoside.
(§4) Briefly, 1-10 nM of radiolabeled peptide was co-incubated for 2 days at either room temperature or 37° C. with 1 μM to 1 nM purified HLA-DR molecules in the presence of a cocktail of protease inhibitors. Assays were performed at various pH conditions, ranging from pH 4 to pH 7. […] After incubation, the percentage of HLA-DR-bound radioactivity is determined by capturing HLA-DR/peptide complexes on Optiplates (Packard Instruments, Meriden, Conn.) coated with the LB3.1 antibody and determining bound counts per minute using the TopCount microscintillation counter (Packard Instruments).

purified HLA DRB1*0404 = biological target: T3, purified HLA DRB1*0404 (Homo sapiens, UniProt P01903+P01911, A100R/A169T/F76Y/I96L/K127E/L162R/M171V/N62H/P40V/Q125Y/R42H/S133A/S149N/S66Y/V209L/W38E); assay: HLA-DR radioligand binding inhibition assay, DRB1*0404; settings: IC50 nM purified HLA DRB1 *0404, purified HLA DRB1*0404
T3 construct: purified from EBV transformed homozygous cell lines or single MHC allele transfected 721.221, C1R, or fibroblast lines; made in house
Procedure, shortened: as §1

purified HLA DRB4*0101 = biological target: T4, purified HLA DRB4*0101 (Homo sapiens, UniProt P01903+P13762, G164S); assay: HLA-DR radioligand binding inhibition assay, DRB4*0101; settings: IC50 nM purified HLA DRB4 *0101, purified HLA DRB4*0101
T4 construct: purified from EBV transformed homozygous cell lines or single MHC allele transfected 721.221, C1R, or fibroblast lines; made in house
Procedure, shortened: as §1

purified HLA DRB3*0101 = biological target: T5, purified HLA DRB3*0101 (Homo sapiens, UniProt P01903+P79483); assay: HLA-DR radioligand binding inhibition assay, DRB3*0101; settings: IC50 nM purified HLA DRB3 *0101, purified HLA DRB3*0101
T5 construct: purified from EBV transformed homozygous cell lines or single MHC allele transfected 721.221, C1R, or fibroblast lines; made in house
Procedure, shortened: (§5)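 HLA-DR-bound radioactivity was read by scintillation counting after LB3.1 antibody capture of HLA-DR/peptide complexes. Beforehand, 1-10 nM labeled peptide was incubated 2 days with 1 μM to 1 nM purified HLA-DR (room temperature or 37° C, pH 4-7, protease inhibitor cocktail) and competitor peptides at […], in 2-4 independent runs.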

purified HLA DRB1*0405 = biological target: T6, purified HLA DRB1*0405 (Homo sapiens, UniProt P01903+P01911, A100R/A169T/D86S/F76Y/I96L/K127E/L162R/M171V/N62H/P40V/Q125Y/R42H/S133A/S149N/S66Y/V115G/V209L/W38E); assay: HLA-DR radioligand binding inhibition assay, DRB1*0405; settings: IC50 nM purified HLA DRB1 *0405, purified HLA DRB1*0405
T6 construct: purified from EBV transformed homozygous cell lines or single MHC allele transfected 721.221, C1R, or fibroblast lines; made in house
Procedure, shortened: as §1

purified HLA DRB1*1201 = biological target: T7, purified HLA DRB1*1201 (Homo sapiens, UniProt P01903+P01911, A100R/A169T/D57E/D86V/F55L/H45Y/K41T/L162R/M171V/P40S/Q125H/Q178H/Q39Y/Q99D/R42G/S66L/T262R/V114A/V67L/W38E/Y59H/Y61H/Y89S); assay: HLA-DR radioligand binding inhibition assay, DRB1*1201
T7 construct: purified from EBV transformed homozygous cell lines or single MHC allele transfected 721.221, C1R, or fibroblast lines; made in house
Procedure, shortened: as §5

purified HLA DRB1*0802 = biological target: T8, purified HLA DRB1*0802 (Homo sapiens, UniProt P01903+P01911, A100R/A103L/A169T/F76Y/H45Y/I96F/K41T/L162R/M171V/P40S/Q125H/Q178H/Q39Y/Q99D/R218S/R42G/S66Y/V115G/W38E); assay: HLA-DR radioligand binding inhibition assay, DRB1*0802; settings: IC50 nM purified HLA DRB1 *0802, purified HLA DRB1*0802
T8 construct: purified from EBV transformed homozygous cell lines or single MHC allele transfected 721.221, C1R, or fibroblast lines; made in house
Protocol: as §2
as §3, with “n-octylglucoside. […] The pH was reduced to 8.0 and the eluates were concentrated by centrifugation in Centriprep 30 concentrators at 2000 rpm (Amicon, Beverly, Mass.).” for “n-octylglucoside.”
as §4, with “Instruments). […] Competitor peptides are tested in 2-4 complete, independent experiments, at concentrations ranging from […].” for “Instruments).”

purified HLA DRB1*1501 = biological target: T9, purified HLA DRB1*1501 (Homo sapiens, UniProt P01903+P01911); assay: HLA-DR radioligand binding inhibition assay, DRB1*1501
T9 construct: purified from EBV transformed homozygous cell lines or single MHC allele transfected 721.221, C1R, or fibroblast lines; made in house
Procedure, shortened: as §1

Compound: CSCC[C@H](NC(=O)CNC(=O)[C@H](CC(C)C)NC(=O)CNC(=O)[C@H](Cc1ccc(O)cc1)NC(=O)[C@@H](N)CS)C(=O)N[C@@H](CCC(=O)O)C(=O)N[C@@H](Cc1c[nH]cn1)C(=O)N[C@@H](CC(C)C)C(=O)N[C@@H](CCCNC(=N)N)C(=O)N[C@@H](CCC(=O)O)C(=O)N[C@H](C(=O)N[C@@H](CCCNC(=N)N)C(=O)N[C@@H](C)C(=O)N[C@H](C(=O)O)C(C)C)C(C)C [Peptide 9019.0044]
- IC50 (purified HLA DRB1*0701): 271 nM
- IC50 (purified HLA DRB1*0901): > 20000 nM
- IC50 (purified HLA DRB1*0404): 493 nM
- IC50 (purified HLA DRB4*0101): 444 nM
- IC50 (purified HLA DRB3*0101): > 20000 nM
- IC50 (purified HLA DRB1*0405): 5120 nM
- IC50 (purified HLA DRB1*1201): 19000 nM
- IC50 (purified HLA DRB1*0802): > 20000 nM
- IC50 (purified HLA DRB1*1501): 690 nM
